From patent US20240300904A1, “PYRIDAZINONES FOR THE TREATMENT OR PREVENTION OF HYPERTENSION” (UNIVERSITETET I OSLO, priority 2021, published 2024)

Legend:
[1] = molecular target: T1, human (h) natriuretic peptide receptor A (hNPR-A) (Homo sapiens, UniProt P16066); experiment: AlphaScreen assay for cGMP: BNP-mediated NPR-A activity (cGMP production); format: cell-based; conditions: conc. response of compound + 0.1 nM BNP; for EC50: NPR-A-expressing HEK293 cells, read-out: -LogEC50 (compound) (converted); for Emax: percentage of maximum BNP-mediated cGMP production, read-out: Max Response
T1 construct: expressed in transfected cells
T1 sequence (P16066 33-1061): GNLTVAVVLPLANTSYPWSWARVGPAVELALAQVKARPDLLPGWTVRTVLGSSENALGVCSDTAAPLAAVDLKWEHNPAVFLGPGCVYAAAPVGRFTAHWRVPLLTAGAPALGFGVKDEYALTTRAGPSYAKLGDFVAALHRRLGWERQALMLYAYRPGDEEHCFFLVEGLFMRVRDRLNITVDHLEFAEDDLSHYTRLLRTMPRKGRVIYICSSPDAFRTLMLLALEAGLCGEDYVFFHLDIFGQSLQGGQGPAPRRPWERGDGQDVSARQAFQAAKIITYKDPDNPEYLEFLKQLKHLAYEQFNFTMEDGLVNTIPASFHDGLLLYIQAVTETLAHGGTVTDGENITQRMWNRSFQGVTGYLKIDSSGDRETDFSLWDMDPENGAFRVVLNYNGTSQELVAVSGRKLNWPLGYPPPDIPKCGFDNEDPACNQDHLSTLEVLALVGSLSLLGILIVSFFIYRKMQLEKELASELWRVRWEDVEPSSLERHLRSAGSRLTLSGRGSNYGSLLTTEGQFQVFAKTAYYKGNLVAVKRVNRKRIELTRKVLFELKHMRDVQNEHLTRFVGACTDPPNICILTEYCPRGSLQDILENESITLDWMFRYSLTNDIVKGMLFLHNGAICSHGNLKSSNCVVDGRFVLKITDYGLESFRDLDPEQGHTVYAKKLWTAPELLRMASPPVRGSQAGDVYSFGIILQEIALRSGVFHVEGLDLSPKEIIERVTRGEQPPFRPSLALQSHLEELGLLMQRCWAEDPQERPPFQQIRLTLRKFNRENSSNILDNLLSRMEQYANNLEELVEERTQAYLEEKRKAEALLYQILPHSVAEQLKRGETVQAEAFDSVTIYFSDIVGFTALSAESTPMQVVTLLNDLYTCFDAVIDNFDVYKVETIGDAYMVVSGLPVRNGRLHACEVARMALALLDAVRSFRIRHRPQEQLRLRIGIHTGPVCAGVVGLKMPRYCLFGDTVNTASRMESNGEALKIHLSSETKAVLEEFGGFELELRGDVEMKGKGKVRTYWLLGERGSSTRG
T1 sequence (P16860 103-134 partner limits assumed): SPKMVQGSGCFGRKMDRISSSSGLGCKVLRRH
Protocol: (§1) QBIHEK293A cells stably transfected with human (h) natriuretic peptide receptor A (hNPR-A) and hNPR-B were made as described in Bach et al., Naunyn Schmiedebergs Arch. Pharmacol. 2014; 387:5-14. Cells were grown in DMEM (Dulbecco's Modified Eagle's Medium, Gibco®, ThermoFischer Scientific) supplemented with 10% Fetal Bovine Serum (FBS), 100 U/ml penicillin, 0.1 mg/ml streptomycin, and 0.4 mg/ml G418 (geneticin) as selection antibiotic.
(§2) The AlphaScreen assay for cGMP (Perkin Elmer) was performed as described in Bach et al. (see above). NPR-A and NPR-B expressing HEK293 cells were split the day before the experiment and harvested using an EDTA solution (Versene, Invitrogen, ThermoFischer Scientific). A final concentration of 6000 cells/well was re-suspended in stimulation buffer (5 mM HEPES in HBSS at pH 7.4, 0.1% BSA) with IBMX (0.7 mM final). Compounds were dissolved in stimulation buffer and added to wells in increasing concentrations. Cells were incubated with the indicated compounds 20 minutes before addition of agonists (human BNP, human CNP or human proBNP) in various concentrations. Cells were stimulated for 20 minutes with agonist before the reactions were stopped (i.e. cells lysed) by adding the AlphaScreen Acceptor bead mix (Acceptor beads-anti-cGMP antibody and 0.5% Tween-20 in 5 mM HEPES buffer at pH 7.4). After 1 hour incubation, the Donor bead mix (Donor beads, biotinylated cGMP, 0.5% Tween-20 in 5 mM HEPES buffer at pH 7.4) was added (40 μl total volume) and incubation continued for 2 hours. The luminescence signals were analyzed quantitatively by reading of the plates on the EnVision® Multilabel Plate Reader (Perkin Elmer) using AlphaScreen emission 570 nm filter.

HeLa cells = experiment: MTT assay (cytotoxicity); format: cell-based; conditions: 24 and 48 h, compared with compounds 3 and 11
Protocol: Cells were incubated for 24 and 48 h with increasing concentrations of the indicated compound. The data represent formazan formation (absorbance) as a percentage of the negative control (1% DMSO).
The MTT (3-(4,5-dimethylthiazol-2-yl)-2,5-diphenyltetrazolium bromide) tetrazolium reduction assay was used to measure cytotoxicity of the compounds in vitro. Viable cells with active metabolism convert MTT into a purple colored formazan product with an absorbance maximum near 570 nm. HeLa cells were plated in 96-well plates in culture medium (DMEM (Dulbecco's Modified Eagle's Medium, Gibco®, ThermoFischer Scientific) supplemented with 10% Fetal Bovine Serum (FBS), 100 U/ml penicillin, 0.1 mg/ml streptomycin) the day before experiments. Cells were incubated for 24 or 48 h at 37° C. with increasing concentrations of each compound (in 1% DMSO). 1% DMSO and 20 mM H2O2 in culture medium were used as negative and positive control, respectively. MTT solution at a final concentration of 0.45 mg/ml was added to the wells and cells incubated for 1 to 4 hours at 37° C. Solubilization solution (40% (vol/vol) dimethylformamide (DMF), 2% (vol/vol) glacial acetic acid and 16% (wt/vol) sodium dodecyl sulfate (SDS)) was added to each well to dissolve formazan crystals. Absorbance was measured at 570 nm.

NPR-A = molecular target: T2, NPR-A (Homo sapiens, UniProt P16066); experiment: Whole-cell binding assays with 125I-ANP in intact NPR-A expressing HEK293 cells
T2 construct: expressed in transfected cells; host or cells: HEK293 cells expressing NPR-A
T2 sequence (P16066 33-1061): T1 sequence (P16066 33-1061)
Protocol: as §1
Binding assays were carried out in intact NPR-A expressing HEK293 cells as described in Dickey et al., J Biol Chem. 2009; 284: 19196-202.

[2] = molecular target: T3, human (h) natriuretic peptide receptor A (hNPR-A) (Homo sapiens, UniProt P16066); experiment: AlphaScreen assay for cGMP: proBNP-mediated NPR-A activity; format: cell-based; conditions: conc. response of compound + 2 nM proBNP
T3 construct: expressed in transfected cells
T3 sequence (P16066 33-1061): T1 sequence (P16066 33-1061)
T3 sequence (P16860 27-134 partner): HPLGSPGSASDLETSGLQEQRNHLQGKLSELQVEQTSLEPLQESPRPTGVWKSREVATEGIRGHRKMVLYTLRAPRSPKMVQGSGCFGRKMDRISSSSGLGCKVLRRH
Protocol: as §1
as §2, with “Cells were stimulated for 20 minutes with agonist before the reactions were stopped (i.e. cells lysed) by adding the AlphaScreen Acceptor bead mix (Acceptor beads-anti-cGMP antibody and 0.5% Tween-20 in 5 mM HEPES buffer at pH 7.4). After 1 hour incubation, the Donor bead mix (Donor beads, biotinylated cGMP, 0.5% Tween-20 in 5 mM HEPES buffer at pH 7.4) was added (40 μl total volume) and incubation continued for 2 hours.” left out

Structure (SMILES): CC(C)c1ccc(CCNC(=O)Cn2ncc(Cl)c(Cl)c2=O)cc1 [Compound 15, 2-(4,5-dichloro-6-oxopyridazin-1(6H)-yl)-N-(4-isopropylphenethyl)acetamide]
- EC50 [1]: 794 nM
- Emax [1]: 27.8%

Structure (SMILES): O=C(Cn1ncc(Cl)c(Cl)c1=O)NC1CC1c1cnn(-c2ccccc2)c1 (racemic) [Compound 18, rac-2-(4,5-dichloro-6-oxopyridazin-1(6H)-yl)-N-((1R,2S)-2-(1-phenyl-1H-pyrazol-4-yl)cyclopropyl)acetamide]
- EC50 [1]: 200 nM
- Emax [1]: 30.7%

Structure (SMILES): O=C(Cn1ncc(Cl)c(Cl)c1=O)C12CC3CC(CC(C3)C1)C2 [Compound 1]
- EC50 [1]: 2510 nM
- Emax [1]: 53.1%

Structure (SMILES): O=C(Cn1ncc(Br)c(Br)c1=O)c1ccc(Cl)cc1 [Compound 10]
- EC50 [1]: 79.4 nM
- Emax [1]: 37%

Structure (SMILES): O=C(Cn1ncc(Cl)c(Cl)c1=O)c1ccc(Cl)cc1Cl [Compound 11, 4,5-dichloro-2-[2-(2,4-dichlorophenyl)-2-oxo-ethyl]pyridazin-3-one]
- EC50 [1]: 200 nM
- Emax [1]: 42.5%

Structure (SMILES): O=C(Cn1ncc(Cl)c(Cl)c1=O)c1ccc(Cl)c(F)c1 [Compound 12, 4,5-dichloro-2-[2-(4-chloro-3-fluoro-phenyl)-2-oxo-ethyl]pyridazin-3-one]
- EC50 [1]: 398 nM
- Emax [1]: 44.3%

Structure (SMILES): O=C(Cn1ncc(Cl)c(Cl)c1=O)NCCc1cnn(-c2ccccc2)c1 [Compound 16, 2-(4,5-dichloro-6-oxopyridazin-1(6H)-yl)-N-(2-(1-phenyl-1H-pyrazol-4-yl)ethyl)acetamide]
- EC50 [1]: 794 nM
- Emax [1]: 41%

Structure (SMILES): Cc1cc(Cl)ccc1C(=O)Cn1ncc(Cl)c(Cl)c1=O [Compound 13, 4,5-dichloro-2-[2-(4-chloro-2-methyl-phenyl)-2-oxo-ethyl]pyridazin-3-one]
- EC50 [1]: 100 nM
- Emax [1]: 41%

Structure (SMILES): O=C(Cn1ncc(Cl)c(Cl)c1=O)Nc1cnn(-c2ccccc2)c1 [Compound 19, 2-(4,5-dichloro-6-oxopyridazin-1(6H)-yl)-N-(1-phenyl-1H-pyrazol-4-yl)acetamide]
- EC50 [1]: 1000 nM
- Emax [1]: 45.7%

Structure (SMILES): N#Cc1ccc(C(=O)Cn2ncc(Cl)c(Cl)c2=O)cc1 [Compound 6, 4-(2-(4,5-dichloro-6-oxopyridazin-1(6H)-yl)acetyl) benzonitrile]
- EC50 [1]: 2510 nM
- Emax [1]: 44.1%

Structure (SMILES): O=C(Cn1ncc(Cl)cc1=O)c1ccc(Cl)cc1 [Compound 4, 5-chloro-2-(2-(4-chlorophenyl)-2-oxoethyl)pyridazin-3(2H)-one]
- EC50 [1]: 5010 nM
- Emax [1]: 35.2%

Structure (SMILES): O=C(Cn1ncc(Cl)cc1=O)c1ccc(Cl)s1 [Compound 8, 5-chloro-2-(2-(5-chlorothiophen-2-yl)-2-oxoethyl) pyridazin-3(2H)-one]
- EC50 [1]: 1580 nM
- Emax [1]: 27%

Structure (SMILES): O=C(Cn1nccc(Cl)c1=O)c1ccc(Cl)cc1 [Compound 3, 4-chloro-2-(2-(4-chlorophenyl)-2-oxoethyl)pyridazin-3(2H)-one]
- EC50 [1]: 12600 nM
- Emax [1]: 48.6%

Structure (SMILES): O=C(Cn1ncc(Cl)c(Cl)c1=O)NCCc1c(Cl)cccc1Cl [Compound 17, 2-(4,5-dichloro-6-oxopyridazin-1(6H)-yl)-N-(2,6-dichlorophenethyl)acetamide]
- EC50 [1]: 794 nM
- Emax [1]: 39.4%

Structure (SMILES): O=C(Cn1ncc(Cl)c(Cl)c1=O)c1ccc(Cl)s1 [Compound 7]
- EC50 [1]: 251 nM
- Emax [1]: 33.4%

Structure (SMILES): O=C(Cn1ncc(Cl)c(Cl)c1=O)NCc1cnn(-c2ccccc2)c1 [Compound 20, 2-(4,5-dichloro-6-oxopyridazin-1(6H)-yl)-N-((1-phenyl-1H-pyrazol-4-yl)methyl)acetamide]
- EC50 [1]: 6310 nM
- Emax [1]: 49.4%

Structure (SMILES): O=C(Cn1ncc(Cl)c(Cl)c1=O)c1ccc(Cl)cc1 [Compound 2]
- toxicity in MTT assay relative to corresponding dichloro compounds (HeLa cells): lower toxicity
- Emax (NPR-A; compound + 50 pM 125I-ANP, response of 50 pM 125I-ANP defined as 100%, read-out: Max Response): 173%
- EC50 (NPR-A; conc. response compound + 50 pM 125I-ANP, NPR-A HEK293 cells, read-out: -LogEC50 (compound) (converted)): 2 nM
- Fold change in Bmax (NPR-A; saturation binding, conc. response 125I-ANP + 10 μM compound): 2.3
- EC50 ([2]; NPR-A-expressing HEK293 cells, read-out: -LOGEC50 (compound) (converted)): 1000 nM
- Emax ([2]; percentage of maximum proBNP-mediated cGMP production, read-out: Max response): 99%
- EC50 [1]: 251 nM
- Emax [1]: 45.3%

Structure (SMILES): Cc1cc(C(=O)Cn2ncc(Cl)c(Cl)c2=O)ccc1Cl [Compound 14, 4,5-dichloro-2-[2-(4-chloro-3-methyl-phenyl)-2-oxo-ethyl]pyridazin-3-one]
- EC50 [1]: 2510 nM
- Emax [1]: 45.4%

Structure (SMILES): COc1ccc(C(=O)Cn2ncc(Cl)c(Cl)c2=O)cc1 [Compound 5, 4,5-dichloro-2-(2-(4-methoxyphenyl)-2-oxoethyl) pyridazin-3(2H)-one]
- EC50 [1]: 3980 nM
- Emax [1]: 38.6%

Structure (SMILES): O=C(Cn1ncc(Cl)c(Cl)c1=O)c1ccc2c(c1)CCCC2 [Compound 9]
- EC50 [1]: 1260 nM
- Emax [1]: 27.7%
